Laboratory results from patent publication US10435642B2, “Ionic liquids containing symmetric quaternary phosphonium cations and phosphorus-containing anions, and their use as lubricant additives” (UT-Battelle, LLC, priority 2014, dated 2019).

Columns and labels:
[1] = Density measurement of ionic liquids; format: physicochemical; conditions: neat ionic liquid
Procedure: (§1) Density and Viscosity Measurements
(§2) The density and viscosity of [P8888][DEHP] were measured and compared with those of [P66614][DEHP] and [P44414][DEHP].

[2] = Viscosity measurement of ionic liquids; format: physicochemical
Procedure: as §1, §2

[3] = Corrosion test: droplet of ionic liquid on grey cast iron; conditions: observation in the corrosion test
Source text: A droplet of each IL was placed on the surface of a piece of grey cast iron.

[4] = Thermogravimetric analysis (TGA) thermal stability in air; format: physicochemical
Source text: ZDDP, when decomposed, left about a 20% solid residue (“ash”) because of its zinc content. In contrast, all decomposition products of the ionic liquids were gaseous, thus confirming their “ashless” nature.

Row | Substance | ρ (density) [1] | Oil-solubility in ExxonMobil PAO 4 cSt base oil (ExxonMobil PAO 4 cSt base oil) | η (viscosity) 40° C. [2] | η (viscosity) 100° C. [2] | Oil-solubility in Chevron SAE 10 W base oil (Chevron SAE 10 W base oil) | Oil-solubility in Shell GTL 4 cSt base oil (Shell GTL 4 cSt base oil) | Hydrophobicity compared to the other ionic liquids [3] | Solid residue (ash) after decomposition [4]
1 | tetraoctylphosphonium bis(2-ethylhexyl)phosphate [[P8888][DEHP]] | 0.86 g/cc | >50 wt % | 608 cP | 68 cP |  |  |  | 
2 | tributyltetradecylphosphonium bis(2-ethylhexyl)phosphate [[P44414][DEHP]] | 0.88 g/cc |  | 252 cP | 25 cP | <1 wt % | <1 wt % | lower hydrophobicity | 
3 | trihexyltetradecylphosphonium bis(2-ethylhexyl)phosphate [[P66614][DEHP]] | 0.91 g/cc |  | 390 cP | 45 cP |  |  |  | 
4 | zinc dialkyldithiophosphate [ZDDP] |  |  |  |  |  |  |  | ~20%
